Data from patent publication US20230123334A1, “AMINO LIPID COMPOUND, PREPARATION METHOD THEREFOR, AND APPLICATION THEREOF” (SHENZHEN SHENXIN BIOTECHNOLOGY CO., LTD., priority 2020, published 2023).

Tests used:
HEK293 cells [1] = test: Preliminary screening as DNA vectors, GFP transfection of HEK293 cells; format: cell-based; conditions: HEK293 cells; lipid/DOPE liposome with 75 ng plasmid DNA (psin-EGFP-IRES-Puro); number of cells expressing GFP divided by total number of nuclei (Hoechst)
Method in brief: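 HEK293 cells in DMEM/10% FBS transfected with 75 ng EGFP plasmid per well complexed with amino lipid/DOPE liposomes in pH 5.6 sodium acetate. Hoechst nuclear stain added 20-24 h post-transfection, then cells cultured another 20-24 h. Confocal imaging gives GFP-positive cells as % of total nuclei.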

HEK293 cells [2] = test: Preliminary screening as mRNA vectors, EGFP mRNA transfection of HEK293 cells; format: cell-based; conditions: HEK293 cells, 96-well plates, EGFP mRNA 50 ng per well; percentage of GFP fluorescent cells relative to total number of cells (Hoechst)
Method in brief: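 HEK293 cells in DMEM plus 10% FBS transfected in 96-well format with 50 ng EGFP mRNA per well; Lipofectamine2000 served as positive control. Read-out is the percentage of GFP-fluorescent cells among total cells, counted by Hoechst nuclear stain.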

Row | SMILES | Absolute DNA transfection efficiency in HEK293 cells (HEK293 cells [1]) [%] | Absolute mRNA transfection efficiency in HEK293 cells (HEK293 cells [2]) [%]
1 | CCCCCCCCCCCCCCCNc1nc(NCCCCCCCCCCC)nc(NCCCN(C)C)n1 [Compound N11N15D6] | 1.6 | 0.3
2 | CCCCCCCCCCCCCCCNc1nc(NCCCCCCCCCCC)nc(NCCN(CC)CC)n1 [Compound N11N15D7] | 0.2 | 0.0
3 | CCCCCCCCCCCCCCCNc1nc(NCCCCCCCCCCC)nc(NCCCN2CCOCC2)n1 [Compound N11N15D8] | 1.1 | 0.5
4 | CCCCCCCCCCCCCCCNc1nc(NCCCCCCCCCCC)nc(NCCCN2CCN(C)CC2)n1 [Compound N11N15D9] | 0.1 | 0.3
5 | CCCCCCCCCCCCCCCNc1nc(NCCCCCCCCCCC)nc(NCC2CCN(C)CC2)n1 [Compound N11N15D10] | 0.4 | 1.6
6 | CCCCCCCCCCCCCCCCNc1nc(NCCCCCCCCCCC)nc(NCCN(C)C)n1 [Compound N11N16D1] | 0.4 | 0.6
7 | CCCCCCCCCCCCCCCCNc1nc(NCCCCCCCCCCC)nc(NCCN2CCOCC2)n1 [Compound N11N16D2] | 0.0 | 1.0
8 | CCCCCCCCCCCCCCCCNc1nc(NCCCCCCCCCCC)nc(NCCN2CCCC2)n1 [Compound N11N16D3] | 1.2 | 3.6
9 | CCCCCCCCCCCCCCCCNc1nc(NCCCCCCCCCCC)nc(NCCN2CCCCC2)n1 [Compound N11N16D4] | 0.1 | 0.0
10 | CCCCCCCCCCCCCCCCNc1nc(NCCCCCCCCCCC)nc(NCCN2CCN(C)CC2)n1 [Compound N11N16D5] | 0.0 | 2.5
11 | CCCCCCCCCCCCCCCCNc1nc(NCCCCCCCCCCC)nc(NCCCN(C)C)n1 [Compound N11N16D6] | 0.2 | 1.4
12 | CCCCCCCCCCCCCCCCNc1nc(NCCCCCCCCCCC)nc(NCCN(CC)CC)n1 [Compound N11N16D7] | 0.0 | 0.7
13 | CCCCCCCCCCCCCCCCNc1nc(NCCCCCCCCCCC)nc(NCCCN2CCOCC2)n1 [Compound N11N16D8] | 0.0 | 0.4
14 | CCCCCCCCCCCCCCCCNc1nc(NCCCCCCCCCCC)nc(NCCCN2CCN(C)CC2)n1 [Compound N11N16D9] | 0.0 | 0.9
15 | CCCCCCCCCCCCCCCCNc1nc(NCCCCCCCCCCC)nc(NCC2CCN(C)CC2)n1 [Compound N11N16D10] | 0.6 | 1.1
16 | CCCCCCCCCCCCCCCCCCNc1nc(NCCCCCCCCCCC)nc(NCCN(C)C)n1 [Compound N11N18D1] | 3.4 | 7.2
17 | CCCCCCCCCCCCCCCCCCNc1nc(NCCCCCCCCCCC)nc(NCCN2CCOCC2)n1 [Compound N11N18D2] | 0.3 | 0.8
18 | CCCCCCCCCCCCCCCCCCNc1nc(NCCCCCCCCCCC)nc(NCCN2CCCC2)n1 [Compound N11N18D3] | 0.6 | 2.8

Row | SMILES | Absolute DNA transfection efficiency in HEK293 cells (HEK293 cells [1]) [%] | Absolute mRNA transfection efficiency in HEK293 cells (HEK293 cells [2]) [%]
19 | CCCCCCCCCCCCCCCCCCNc1nc(NCCCCCCCCCCC)nc(NCCN2CCCCC2)n1 [Compound N11N18D4] | 1.9 | 2.3
20 | CCCCCCCCCCCCCCCCCCNc1nc(NCCCCCCCCCCC)nc(NCCN2CCN(C)CC2)n1 [Compound N11N18D5] | 1.4 | 0.0
21 | CCCCCCCCCCCCCCCCCCNc1nc(NCCCCCCCCCCC)nc(NCCCN(C)C)n1 [Compound N11N18D6] | 0.4 | 0.0
22 | CCCCCCCCCCCCCCCCCCNc1nc(NCCCCCCCCCCC)nc(NCCN(CC)CC)n1 [Compound N11N18D7] | 1.1 | 4.0
23 | CCCCCCCCCCCCCCCCCCNc1nc(NCCCCCCCCCCC)nc(NCCCN2CCOCC2)n1 [Compound N11N18D8] | 2.2 | 1.2
24 | CCCCCCCCCCCCCCCCCCNc1nc(NCCCCCCCCCCC)nc(NCCCN2CCN(C)CC2)n1 [Compound N11N18D9] | 0.0 | 1.7
25 | CCCCCCCCCCCCCCCCCCNc1nc(NCCCCCCCCCCC)nc(NCC2CCN(C)CC2)n1 [Compound N11N18D10] | 0.2 | 1.6
26 | CCCCCCCCCCCCNc1nc(NCCCCCCCCCCCC)nc(NCCN(C)C)n1 [Compound N12N12D1] | 0.1 | 0.2
27 | CCCCCCCCCCCCNc1nc(NCCCCCCCCCCCC)nc(NCCN2CCOCC2)n1 [Compound N12N12D2] | 0.2 | 1.0
28 | CCCCCCCCCCCCNc1nc(NCCCCCCCCCCCC)nc(NCCN2CCCC2)n1 [Compound N12N12D3] | 1.9 | 3.8
29 | CCCCCCCCCCCCNc1nc(NCCCCCCCCCCCC)nc(NCCN2CCCCC2)n1 [Compound N12N12D4] | 0.4 | 2.2
30 | CCCCCCCCCCCCNc1nc(NCCCCCCCCCCCC)nc(NCCN2CCN(C)CC2)n1 [Compound N12N12D5] | 0.4 | 0.8
31 | CCCCCCCCCCCCNc1nc(NCCCCCCCCCCCC)nc(NCCCN(C)C)n1 [Compound N12N12D6] | 0.3 | 0.8
32 | CCCCCCCCCCCCNc1nc(NCCCCCCCCCCCC)nc(NCCN(CC)CC)n1 [Compound N12N12D7] | 0.1 | 0.6
33 | CCCCCCCCCCCCNc1nc(NCCCCCCCCCCCC)nc(NCCCN2CCOCC2)n1 [Compound N12N12D8] | 0.0 | 0.3
34 | CCCCCCCCCCCCNc1nc(NCCCCCCCCCCCC)nc(NCCCN2CCN(C)CC2)n1 [Compound N12N12D9] | 0.0 | 1.5
35 | CCCCCCCCCCCCNc1nc(NCCCCCCCCCCCC)nc(NCC2CCN(C)CC2)n1 [Compound N12N12D10] | 0.5 | 0.6
36 | CCCCCCCCCCCCCNc1nc(NCCCCCCCCCCCC)nc(NCCN(C)C)n1 [Compound N12N13D1] | 1.2 | 1.6
